Test: Moisture absorption rate under high humidity and moisture retention under low humidity
Assay type: physicochemical
Details: 25° C.; for Moisture absorption rates under low humidity after different elapsed time (%): after 313 hours at high humidity
Description: The moisture absorption rate under high humidity and the moisture retention rate under low humidity were evaluated for the composition produced in Example 7 and urea as a contrast. Specifically, 1 g of dried sample was dried in a weighing bottle and weighed precisely, and left stand in a desiccator under relative humidity as high as 84% at 25° C. while measuring the sample weight with time until 313 hours has elapsed. Then, the same sample was transferred into a desiccator under relative humidity as low as 33% at 25° C., and left stand in the desiccator while measuring the sample weight with time in the same manner as above considering the point 313 hours has elapsed as a test starting point (0 hr). The moisture absorption rate was obtained in accordance with the following equation. Moisture absorption rate (%)=(Wt−W0/W0)×100 W0: dry weight before being left stand, Wt: weight at the time of each measuring

NC(N)=O [Urea, urea]
deliquescent properties (during the course of moisture absorption, relative humidity 84%): showed its deliquescent properties | moisture retention (left stand under low humidity, relative humidity 33%): released almost all its moisture | Moisture absorption rates under low humidity after different elapsed time (%) (relative humidity 33%, 0 Hr): 72.7% | Moisture absorption rates under low humidity after different elapsed time (%) (relative humidity 33%, 25 Hr): 1.2% | Moisture absorption rates under low humidity after different elapsed time (%) (relative humidity 33%, 49 Hr): 0.3% | Moisture absorption rates under low humidity after different elapsed time (%) (relative humidity 33%, 75 Hr): 0.4% | Moisture absorption rates under low humidity after different elapsed time (%) (relative humidity 33%, 141 Hr): 0.3% | Moisture absorption rates under high humidity after different elapsed time (%) (relative humidity 84%, 5 Hr): 0.2% | Moisture absorption rates under high humidity after different elapsed time (%) (relative humidity 84%, 27 Hr): 3.2% | Moisture absorption rates under high humidity after different elapsed time (%) (relative humidity 84%, 48 Hr): 7.4% | Moisture absorption rates under high humidity after different elapsed time (%) (relative humidity 84%, 120 Hr): 24.7% | Moisture absorption rates under high humidity after different elapsed time (%) (relative humidity 84%, 197 Hr): 42.6% | Moisture absorption rates under high humidity after different elapsed time (%) (relative humidity 84%, 313 Hr): 72.7%
